Experimental data as given in PubChem BioAssay AID2060599 (Molecular Pharmacology Branch, DTP, NCI, 2025).

Tested on: 817829-284-R-J1-PDC complex spheroids, viability
Experiment: Anticancer human tumor 817829-284-R-J1-PDC patient-derived colon adenocarcinoma cell line growth inhibition [CLK]
Settings: second compound 3.16 µM; first compound 0.1 µM; hits give low values
Procedure, shortened: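 Multi-cell-type spheroids combined patient-derived tumor cells with HUVEC endothelial cells and human mesenchymal stem cells. Paired agents were dosed in half-log steps down from about clinical Cmax, or from 10 microM where Cmax was unknown.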
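Also: spheroids exposed to the agents for seven days before readout.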

Compared with `C=CC(=O)N1CCN(c2nc(=O)n(-c3c(C)ccnc3C(C)C)c3nc(-c4c(O)cccc4F)c(F)cc23)C(C)C1` (stereo unspecified) + CNC(=O)c1ccc(Nc2nc(OC3CCCC3)c3c(-c4ccc5nc(C)oc5c4)c[nH]c3n2)c(OC)c1, `CCCS(=O)(=O)Nc1ccc(F)c(C(=O)c2c[nH]c3ncc(-c4ccc(Cl)cc4)cc23)c1F` + CNC(=O)c1ccc(Nc2nc(OC3CCCC3)c3c(-c4ccc5nc(C)oc5c4)c[nH]c3n2)c(OC)c1 is lower in viability, T/C: 25.8% for the first, 15.9% for the second.

Work on `COC1C=CCC(C)C(C)S(=O)(=O)NC(=O)c2ccc3c(c2)N(CC2CCC21)CC1(CCCc2cc(Cl)ccc21)CO3` (stereo unspecified) + CNC(=O)c1ccc(Nc2nc(OC3CCCC3)c3c(-c4ccc5nc(C)oc5c4)c[nH]c3n2)c(OC)c1 yielded a viability, T/C of 22.5%.

Same assay, conditions: second compound 3.16 µM; first compound 0.316 µM; hits give low values

Going from `C#Cc1c(F)ccc2cc(O)cc(-c3ncc4c(N5CC6CCC(C5)N6)nc(OCC56CCCN5CC(F)C6)nc4c3F)c12` (stereo unspecified) + CNC(=O)c1ccc(Nc2nc(OC3CCCC3)c3c(-c4ccc5nc(C)oc5c4)c[nH]c3n2)c(OC)c1 to `C=C(F)C(=O)N1CCN(c2nc(OCC3CCCN3C)nc3c2CCN(c2cccc4cccc(Cl)c24)C3)CC1CC#N` (stereo unspecified) + CNC(=O)c1ccc(Nc2nc(OC3CCCC3)c3c(-c4ccc5nc(C)oc5c4)c[nH]c3n2)c(OC)c1, the viability, T/C falls from 23% to 22.5%.

First: C=CC(=O)N1CCN(c2nc(=O)n(-c3c(C)ccnc3C(C)C)c3nc(-c4c(O)cccc4F)c(F)cc23)C(C)C1 (stereo unspecified) + CNC(=O)c1ccc(Nc2nc(OC3CCCC3)c3c(-c4ccc5nc(C)oc5c4)c[nH]c3n2)c(OC)c1
Second: CCCS(=O)(=O)Nc1ccc(F)c(C(=O)c2c[nH]c3ncc(-c4ccc(Cl)cc4)cc23)c1F + CNC(=O)c1ccc(Nc2nc(OC3CCCC3)c3c(-c4ccc5nc(C)oc5c4)c[nH]c3n2)c(OC)c1
The viability, T/C of the first is lower: 15.9% for the first, 21.2% for the second.

Work on `COC1C=CCC(C)C(C)S(=O)(=O)NC(=O)c2ccc3c(c2)N(CC2CCC21)CC1(CCCc2cc(Cl)ccc21)CO3` (stereo unspecified) + CNC(=O)c1ccc(Nc2nc(OC3CCCC3)c3c(-c4ccc5nc(C)oc5c4)c[nH]c3n2)c(OC)c1 yielded a viability, T/C of 21.7%.

Same assay, conditions: second compound 3.16 µM; first compound 1 µM; hits give low values

Compared with `C#Cc1c(F)ccc2cc(O)cc(-c3ncc4c(N5CC6CCC(C5)N6)nc(OCC56CCCN5CC(F)C6)nc4c3F)c12` (stereo unspecified) + CNC(=O)c1ccc(Nc2nc(OC3CCCC3)c3c(-c4ccc5nc(C)oc5c4)c[nH]c3n2)c(OC)c1, `C=C(F)C(=O)N1CCN(c2nc(OCC3CCCN3C)nc3c2CCN(c2cccc4cccc(Cl)c24)C3)CC1CC#N` (stereo unspecified) + CNC(=O)c1ccc(Nc2nc(OC3CCCC3)c3c(-c4ccc5nc(C)oc5c4)c[nH]c3n2)c(OC)c1 is higher in viability, T/C: 20.9% for the first, 21% for the second.

`C=CC(=O)N1CCN(c2nc(=O)n(-c3c(C)ccnc3C(C)C)c3nc(-c4c(O)cccc4F)c(F)cc23)C(C)C1` (stereo unspecified) + CNC(=O)c1ccc(Nc2nc(OC3CCCC3)c3c(-c4ccc5nc(C)oc5c4)c[nH]c3n2)c(OC)c1 and `CCCS(=O)(=O)Nc1ccc(F)c(C(=O)c2c[nH]c3ncc(-c4ccc(Cl)cc4)cc23)c1F` + CNC(=O)c1ccc(Nc2nc(OC3CCCC3)c3c(-c4ccc5nc(C)oc5c4)c[nH]c3n2)c(OC)c1 are the same in viability, T/C: 22.2% for the first, 22.2% for the second.

`COC1C=CCC(C)C(C)S(=O)(=O)NC(=O)c2ccc3c(c2)N(CC2CCC21)CC1(CCCc2cc(Cl)ccc21)CO3` (stereo unspecified) + CNC(=O)c1ccc(Nc2nc(OC3CCCC3)c3c(-c4ccc5nc(C)oc5c4)c[nH]c3n2)c(OC)c1 showed a viability, T/C of 17.4%.

Same assay, conditions: second compound 3.16 µM; first compound 3.16 µM; hits give low values

Compared with `C#Cc1c(F)ccc2cc(O)cc(-c3ncc4c(N5CC6CCC(C5)N6)nc(OCC56CCCN5CC(F)C6)nc4c3F)c12` (stereo unspecified) + CNC(=O)c1ccc(Nc2nc(OC3CCCC3)c3c(-c4ccc5nc(C)oc5c4)c[nH]c3n2)c(OC)c1, `C=C(F)C(=O)N1CCN(c2nc(OCC3CCCN3C)nc3c2CCN(c2cccc4cccc(Cl)c24)C3)CC1CC#N` (stereo unspecified) + CNC(=O)c1ccc(Nc2nc(OC3CCCC3)c3c(-c4ccc5nc(C)oc5c4)c[nH]c3n2)c(OC)c1 is lower in viability, T/C: 20.8% for the first, 3.26% for the second.

Compared with `C=CC(=O)N1CCN(c2nc(=O)n(-c3c(C)ccnc3C(C)C)c3nc(-c4c(O)cccc4F)c(F)cc23)C(C)C1` (stereo unspecified) + CNC(=O)c1ccc(Nc2nc(OC3CCCC3)c3c(-c4ccc5nc(C)oc5c4)c[nH]c3n2)c(OC)c1, `CCCS(=O)(=O)Nc1ccc(F)c(C(=O)c2c[nH]c3ncc(-c4ccc(Cl)cc4)cc23)c1F` + CNC(=O)c1ccc(Nc2nc(OC3CCCC3)c3c(-c4ccc5nc(C)oc5c4)c[nH]c3n2)c(OC)c1 is lower in viability, T/C: 23.5% for the first, 9.76% for the second.

`COC1C=CCC(C)C(C)S(=O)(=O)NC(=O)c2ccc3c(c2)N(CC2CCC21)CC1(CCCc2cc(Cl)ccc21)CO3` (stereo unspecified) + CNC(=O)c1ccc(Nc2nc(OC3CCCC3)c3c(-c4ccc5nc(C)oc5c4)c[nH]c3n2)c(OC)c1 gave a viability, T/C of 7.34%.

Same assay, conditions: second compound 3.16 µM; first compound 10 µM; hits give low values

Compared with `C#Cc1c(F)ccc2cc(O)cc(-c3ncc4c(N5CC6CCC(C5)N6)nc(OCC56CCCN5CC(F)C6)nc4c3F)c12` (stereo unspecified) + CNC(=O)c1ccc(Nc2nc(OC3CCCC3)c3c(-c4ccc5nc(C)oc5c4)c[nH]c3n2)c(OC)c1, `C=C(F)C(=O)N1CCN(c2nc(OCC3CCCN3C)nc3c2CCN(c2cccc4cccc(Cl)c24)C3)CC1CC#N` (stereo unspecified) + CNC(=O)c1ccc(Nc2nc(OC3CCCC3)c3c(-c4ccc5nc(C)oc5c4)c[nH]c3n2)c(OC)c1 is lower in viability, T/C: 10.5% for the first, 0.18% for the second.

Compared with `C=CC(=O)N1CCN(c2nc(=O)n(-c3c(C)ccnc3C(C)C)c3nc(-c4c(O)cccc4F)c(F)cc23)C(C)C1` (stereo unspecified) + CNC(=O)c1ccc(Nc2nc(OC3CCCC3)c3c(-c4ccc5nc(C)oc5c4)c[nH]c3n2)c(OC)c1, `CCCS(=O)(=O)Nc1ccc(F)c(C(=O)c2c[nH]c3ncc(-c4ccc(Cl)cc4)cc23)c1F` + CNC(=O)c1ccc(Nc2nc(OC3CCCC3)c3c(-c4ccc5nc(C)oc5c4)c[nH]c3n2)c(OC)c1 is higher in viability, T/C: 10.6% for the first, 12.3% for the second.

In the case of `COC1C=CCC(C)C(C)S(=O)(=O)NC(=O)c2ccc3c(c2)N(CC2CCC21)CC1(CCCc2cc(Cl)ccc21)CO3` (stereo unspecified) + CNC(=O)c1ccc(Nc2nc(OC3CCCC3)c3c(-c4ccc5nc(C)oc5c4)c[nH]c3n2)c(OC)c1, the viability, T/C is reported as 4.74%.

Same assay, conditions: second compound 10 µM; first compound 0.0316 µM; hits give low values

First: C#Cc1c(F)ccc2cc(O)cc(-c3ncc4c(N5CC6CCC(C5)N6)nc(OCC56CCCN5CC(F)C6)nc4c3F)c12 (stereo unspecified) + CNC(=O)c1ccc(Nc2nc(OC3CCCC3)c3c(-c4ccc5nc(C)oc5c4)c[nH]c3n2)c(OC)c1
Second: C=C(F)C(=O)N1CCN(c2nc(OCC3CCCN3C)nc3c2CCN(c2cccc4cccc(Cl)c24)C3)CC1CC#N (stereo unspecified) + CNC(=O)c1ccc(Nc2nc(OC3CCCC3)c3c(-c4ccc5nc(C)oc5c4)c[nH]c3n2)c(OC)c1
The viability, T/C of the first is higher: 52.5% for the first, 21.7% for the second.

`C=CC(=O)N1CCN(c2nc(=O)n(-c3c(C)ccnc3C(C)C)c3nc(-c4c(O)cccc4F)c(F)cc23)C(C)C1` (stereo unspecified) + CNC(=O)c1ccc(Nc2nc(OC3CCCC3)c3c(-c4ccc5nc(C)oc5c4)c[nH]c3n2)c(OC)c1 showed a viability, T/C of 27.2%.
